In patent publication US6001812A, “Modulating body/cranial hair growth with derivatives of the α-type melanocyte-stimulating hormone” (Societe L'Oreal S.A., priority 1995, dated 1999):
Where a SMILES comes first, the peptide text is derived from it.

Tested on: hair follicles
Test: Lengthening and survival of hair follicles maintained in vitro
Format: cell-based
Design: Mean lengthening: unit not given here
Method: Viable in vitro hair follicles were prepared according to the technique described in French Patent Application No. 95-08465, filed Jul. 12, 1995 and assigned to the assignee hereof.
From a scalp biopsy, a rather fine strip of scalp was isolated using a scalpel. The adipose tissue surrounding the follicles was removed with microforceps while avoiding damage to the hair bulb. The follicles were cut out with a scalpel under a microscope in order to separate them from their epidermal and dermal surroundings.
The follicles were then cultured in the wells of Costar-type 24-well plates, at the rate of one follicle per well. Each well contained 0.5 ml of Williams' medium E, to which had been added penicillin and streptomycin to a final concentration of 50 IU/ml, glutamine to 2 mM, bovine insulin to 0.01 mg/ml and hydrocortisone to 0.04 mg/ml.
The follicles were then measured using a microscope equipped with a micrometric eyepiece.
After 24 hours, the follicles were again measured and those which had lengthened by less than 0.3 divisions of the micrometer, corresponding to 0.16 mm, were discarded.
The five (5) following culturing conditions were tested:
Condition A: Complete Williams' medium E, without peptide.
Condition B: Complete Williams' medium E+10 mM Ac-LPV-NH2.
Condition C: Complete Williams' medium E+1 mM Ac-LPV-NH2.
Condition D: Complete Williams' medium E+0.1 mM Ac-LPV-NH2.

[1] = 0.1 mM peptide in complete Williams' medium E, day 0
[2] = 0.1 mM peptide in complete Williams' medium E, day 1
[3] = 0.1 mM peptide in complete Williams' medium E, day 4
[4] = 1 mM peptide in complete Williams' medium E, day 0
[5] = 1 mM peptide in complete Williams' medium E, day 1
[6] = 1 mM peptide in complete Williams' medium E, day 11
[7] = 10 mM peptide in complete Williams' medium E, day 0
[8] = 10 mM peptide in complete Williams' medium E, day 1
[9] = 10 mM peptide in complete Williams' medium E, day 12
[10] = summary of Example 1, versus medium without peptide

## CC(=O)N[C@@H](CCCCN)C(=O)N1CCC[C@H]1C(=O)N[C@H](C(N)=O)C(C)C [Acetyl-Lys-Pro-Val-NH2] (Ac-Lys-Pro-Val-NH2)
[1]
  % Survival: 100%
  Mean lengthening: 0.00
[2]
  % Survival: 100%
  Mean lengthening: 0.37
[3]
  % Survival: 100%
  Mean lengthening: 1.10
0.1 mM peptide in complete Williams' medium E, day 5
  % Survival: 100%
0.1 mM peptide in complete Williams' medium E, day 6
  % Survival: 100%
0.1 mM peptide in complete Williams' medium E, day 7
  % Survival: 83%
0.1 mM peptide in complete Williams' medium E, day 8
  % Survival: 50%
0.1 mM peptide in complete Williams' medium E, day 11
  % Survival: 42%
0.1 mM peptide in complete Williams' medium E, day 12
  % Survival: 17%
[4]
  % Survival: 100%
  Mean lengthening: 0.00
[5]
  % Survival: 100%
  Mean lengthening: 0.38
1 mM peptide in complete Williams' medium E, day 4
  % Survival: 100%
1 mM peptide in complete Williams' medium E, day 5
  % Survival: 100%
1 mM peptide in complete Williams' medium E, day 6
  % Survival: 100%
1 mM peptide in complete Williams' medium E, day 7
  % Survival: 91%
1 mM peptide in complete Williams' medium E, day 8
  % Survival: 55%
[6]
  % Survival: 36%
  Mean lengthening: 1.70
[7]
  % Survival: 100%
  Mean lengthening: 0.00
[8]
  % Survival: 100%
  Mean lengthening: 0.38
10 mM peptide in complete Williams' medium E, day 4
  % Survival: 100%
10 mM peptide in complete Williams' medium E, day 5
  % Survival: 100%
10 mM peptide in complete Williams' medium E, day 6
  % Survival: 100%
10 mM peptide in complete Williams' medium E, day 7
  % Survival: 100%
10 mM peptide in complete Williams' medium E, day 8
  % Survival: 92%
10 mM peptide in complete Williams' medium E, day 11
  % Survival: 83%
[9]
  % Survival: 42%
  Mean lengthening: 2.40
[10]
  Effect on lengthening of the cultured hair follicles (in words): promoted the lengthening
  Effect on survival time of the cultured hair follicles (in words): increased their survival time
